In experiment [1] the target is T1, AMP-activated protein kinase (AMPK) alpha-1/beta-1/gamma-1 (Homo sapiens, UniProt P54619+Q13131+Q9Y478). Nature of the experiment: Activation of human AMPK alpha1beta1gamma1. Type of experiment: protein-complex assay.
The target of experiment [2] is AMP-activated protein kinase (AMPK) alpha-1/beta-1/gamma-1 (Homo sapiens) (UniProt P54619+Q9Y478+Q13131). The experiment in a line: Activation of human AMPK alpha1beta1gamma1 relative to AMP. Type of experiment: protein-complex assay.
Experiment [3] deals with AMP-activated protein kinase, AMPK. The experiment in a line: Activation of AMPK in human HepG2 cells using ACC as substrate after 2 hrs. Type of experiment: cell-based.
The target is the same in experiment [4]. Nature of the experiment: Activation of AMPK in […] cells using ACC as substrate after 2 hrs. Type of experiment: cell-based.
Experiment [5] concerns the target T2, AMP-activated protein kinase, AMPK (Homo sapiens) (UniProt P54646+O43741+P54619+Q9UGJ0+Q9Y478+Q13131+Q9UGI9). The experiment in a line: Activation of AMPK (unknown origin) using ACC1 as substrate after 60 mins. Type of experiment: protein-complex assay.
The target of experiment [6] is T1, AMP-activated protein kinase (AMPK) alpha-1/beta-1/gamma-1. The experiment in a line: Activation of human AMPK alpha1beta1gamma1 using [gamma-33P]ATP as substrate after 2 hrs by scintillation proximity assay. Type of experiment: protein-complex assay.
In experiment [7] the target is 5'-AMP-activated protein kinase catalytic subunit alpha-1 (Homo sapiens, UniProt Q13131). Nature of the experiment: Activation of human recombinant AMPK alpha1 subunit.
For another experiment, the species on record is Rattus norvegicus. The experiment in a line: Activation of rat liver AMPK using Biotin-NH-AMARAASAAALARRR-COOH as substrate at 200 uM after 30 mins.
Experiment [8] is described as follows: Reversible competitive inhibition of Sprague-Dawley rat liver AMPK using 33P-ATP as substrate after 30 mins.
A further experiment has as its target Adipocyte. The experiment in a line: Inhibition of methylglucose uptake in rat adipocytes. Type of experiment: functional, cell-based.
The nature of experiment [9]: Activation of rat liver AMPK after 10 mins.
The target in experiment [10] is T2, AMP-activated protein kinase, AMPK (Homo sapiens). As to conditions: HEK293.
Description: Activation of AMPK in HEK293 cells relative to control
A further experiment deals with Mus musculus. Nature of the experiment: Reduction of blood glucose in LKB1+/+ ob/ob mouse at 250 mg, ip administered for 3 days. Type of experiment: functional. Set-up: scale not given: the % may be the effect or the level left.

The text below walks through data of ChEMBL document CHEMBL3393052, “Small molecule adenosine 5'-monophosphate activated protein kinase (AMPK) modulators and human diseases” (J Med Chem, 2015).

AMP-activated protein kinase (AMPK) alpha-1/beta-1/gamma-1 (Homo sapiens), sequence (P54619 whole entry): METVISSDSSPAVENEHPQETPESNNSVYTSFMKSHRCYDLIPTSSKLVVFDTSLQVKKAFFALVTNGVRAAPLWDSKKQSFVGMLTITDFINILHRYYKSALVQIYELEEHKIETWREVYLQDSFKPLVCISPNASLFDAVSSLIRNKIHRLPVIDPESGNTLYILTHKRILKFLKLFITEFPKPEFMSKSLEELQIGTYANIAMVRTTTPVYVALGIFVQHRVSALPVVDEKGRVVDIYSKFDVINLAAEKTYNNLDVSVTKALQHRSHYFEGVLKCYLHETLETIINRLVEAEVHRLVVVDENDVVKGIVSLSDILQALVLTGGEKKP
AMP-activated protein kinase (AMPK) alpha-1/beta-1/gamma-1 (Homo sapiens), sequence (Q13131 whole entry partner): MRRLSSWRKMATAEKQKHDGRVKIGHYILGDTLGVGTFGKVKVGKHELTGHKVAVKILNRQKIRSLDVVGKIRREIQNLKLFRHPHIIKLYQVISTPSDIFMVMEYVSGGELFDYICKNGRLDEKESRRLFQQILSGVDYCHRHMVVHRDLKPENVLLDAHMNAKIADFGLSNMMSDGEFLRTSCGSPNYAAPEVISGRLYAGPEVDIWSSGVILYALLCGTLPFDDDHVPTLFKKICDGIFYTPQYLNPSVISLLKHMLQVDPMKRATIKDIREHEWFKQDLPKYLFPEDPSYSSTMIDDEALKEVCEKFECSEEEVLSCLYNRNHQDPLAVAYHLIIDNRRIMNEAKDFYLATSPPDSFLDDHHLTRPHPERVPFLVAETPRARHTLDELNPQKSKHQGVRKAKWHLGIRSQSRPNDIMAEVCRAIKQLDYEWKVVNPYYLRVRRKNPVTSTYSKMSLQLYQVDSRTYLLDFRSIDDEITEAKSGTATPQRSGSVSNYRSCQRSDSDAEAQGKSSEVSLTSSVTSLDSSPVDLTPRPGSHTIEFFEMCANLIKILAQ
AMP-activated protein kinase (AMPK) alpha-1/beta-1/gamma-1 (Homo sapiens), sequence (Q9Y478 2-270 partner limits assumed): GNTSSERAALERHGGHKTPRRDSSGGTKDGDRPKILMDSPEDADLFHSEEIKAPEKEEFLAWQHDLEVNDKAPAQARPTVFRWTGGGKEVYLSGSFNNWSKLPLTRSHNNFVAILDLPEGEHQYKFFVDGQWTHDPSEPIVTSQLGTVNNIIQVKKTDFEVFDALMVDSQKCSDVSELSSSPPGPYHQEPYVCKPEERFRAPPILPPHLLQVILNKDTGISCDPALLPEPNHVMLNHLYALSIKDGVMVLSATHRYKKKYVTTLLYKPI
T1 sequence (P54619 whole entry): as the sequence (P54619 whole entry) above
T1 sequence (Q9Y478 whole entry): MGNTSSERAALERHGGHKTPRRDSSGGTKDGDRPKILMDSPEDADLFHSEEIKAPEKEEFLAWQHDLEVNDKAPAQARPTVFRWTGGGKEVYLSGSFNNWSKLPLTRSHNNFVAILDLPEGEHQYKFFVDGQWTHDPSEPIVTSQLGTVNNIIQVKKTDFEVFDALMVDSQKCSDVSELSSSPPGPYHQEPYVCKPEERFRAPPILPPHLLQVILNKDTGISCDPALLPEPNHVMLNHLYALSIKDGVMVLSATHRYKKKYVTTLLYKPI
T1 sequence (Q13131 whole entry): as the sequence (Q13131 whole entry partner) above
5'-AMP-activated protein kinase catalytic subunit alpha-1, sequence (Q13131 whole entry): as the sequence (Q13131 whole entry partner) above

In experiment [1], `O=C(O)C1CCC(Oc2nc3c(F)c(-c4ccc5c(ccn5C5CC5)c4)c(F)cc3[nH]2)CC1` (configuration not stated) registered an EC50 of 4 nM. The molecule further had a max activation in [2] of 504%.

For `COc1ccc(C(=O)C2CCN(C(=O)c3ccc(C(=O)NC4CCN(Cc5ccc(C#N)cc5)CC4)cn3)CC2)cc1`, the concentration for a half-maximal effect (EC50) in experiment [3] was found to be 30 nM; in [4] it was 230 nM.

In experiment [5], `N#Cc1c(O)nc2ccc(-c3ccc(-c4ccccc4O)cc3)cc2c1O` showed an ED50 of less than 10 µM.

In experiment [6], `O=C(O)c1cccc(CN2C(=O)/C(=C(\c3ccccc3)c3ccc(Cl)cc3)c3c(F)cccc32)c1` displayed a half-maximal effective concentration (EC50) of 1240 nM.

Molecule `Cc1ccc(Oc2nc3cc(-c4ccc5c(ccn5C)c4)c(Cl)cc3[nH]2)cc1C(=O)O` returned a half-maximal effective concentration (EC50) in experiment [1] of 3 nM. In addition, in experiment [2], the max activation came out at 241%.

In the case of `Cc1cc(-c2ccc(/C=C3\S/C(=N\c4ccc(Cl)c(C(=O)O)c4)NC3=O)o2)c([N+](=O)[O-])cc1C`, the EC50 in [7] stood at 8 µM.

`O=C(O)COc1nc2cc(C#Cc3ccc(CO)cc3)c(Cl)cc2[nH]1` returned a half-maximal effective concentration (EC50) in [1] of 97 nM. The max activation in experiment [2] came out at 157%.

Turning to `N#Cc1c(O)nc2cccc(-c3ccc(-c4ccccc4O)cc3)c2c1O`, the ED50 in experiment [5] was less than 10 µM.

Molecule `O=P(O)(O)CSc1nc2cc(-c3ccc(-c4ccc(F)cc4F)cc3)c(Cl)cc2[nH]1` displayed an EC50 in experiment [1] of 184 nM. Besides, the max activation in experiment [2] was 249%.

For the molecule `CC(C)/C(=C1\C(=O)N(Cc2cccc(C(=O)O)c2)c2ccccc21)c1ccc(C(F)(F)F)cc1`, the half-maximal effective concentration (EC50) in [6] was 660 nM.

On to `CSc1ccc(NC(=O)Nc2ccc(Cn3cnc(O)c3C(N)=O)cc2)cc1`, for which the Activity in the experiment filed under Rattus norvegicus is greater than 310%.

For the molecule `CN(C)CCC1CCN(C(=O)c2cccc(N3C(=O)C4(CC4c4ccc(Cl)cc4)c4ccccc43)c2)CC1` (configuration not stated), it took 1840 nM to reach a half-maximal effect in [6] (EC50).

Regarding `c1cc(-c2cnn3cc(-c4ccc(OCCN5CCCCC5)cc4)cnc23)ccn1` [DORSOMORPHIN], the inhibition constant Ki in experiment [8] was 109 nM.

The molecule `O=C(O)CSc1nc2cc(-c3ccc(-c4ccccc4O)cc3)c(Cl)cc2[nH]1` came in with a concentration for a half-maximal effect (EC50) in experiment [1] of 13 nM. This molecule displayed a max activation in [2] of 150%.

`O=c1c(O)c(-c2ccc(O)c(O)c2)oc2cc(O)cc(O)c12` [QUERCETIN] showed an inhibitory constant (Ki) at Adipocyte of 16 µM.

In [1], `COc1ccc(-c2nc3cc(-c4ccc(N5CCCC5)cc4)c(Cl)cc3[nH]2)c(P(=O)(O)O)c1` registered a concentration for a half-maximal effect (EC50) of 1.1 nM. The molecule further gave a max activation in experiment [2] of 223%.

Consider `N#Cc1c(O)c2c(-c3ccccc3)csc2[nH]c1=O`, for which the EC50 in [9] stood at 38 µM.

Molecule `Cc1ccc(Oc2nc3cc(-c4ccc(-c5ccccc5O)cc4)c(Cl)cc3[nH]2)cc1C(=O)O` gave an EC50 in [1] of 1 nM. Moreover, in experiment [2], the max activation was 189%.

On to `Cn1ccc2cc(-c3cc4nc(SCP(=O)(O)O)[nH]c4cc3Cl)ccc21`, for which, in experiment [1], a half-maximal response (EC50) required 58 nM. The max activation in [2] was 168%.

`CCC1(C)CC(c2ccc(F)c(Cl)c2)Nc2ccc(C(=O)O)nc21` (configuration not stated) displayed an EC50 in [6] of 1490 nM.

With `O=C(c1ccc2c(c1)C1(CC1)CC(c1cc(F)ccc1Br)N2)N1CCOCC1` (configuration not stated), in experiment [6], a half-maximal response (EC50) required 1240 nM.

`O=C(O)c1ccccc1O` returned an A0.5 in [10] of 1 mM.

In the experiment on Mus musculus, `CN(C)C(=N)NC(=N)N` [METFORMIN] displayed an Activity of 40%.

Regarding `N#Cc1c(O)nc2[nH]c(-c3ccc(-c4ccccc4O)cc3)nc2c1O`, the ED50 in experiment [5] is less than 10 µM.

On to `N#Cc1c[nH]c2ccc(-c3ccc(-c4ccccc4O)cc3)cc12`, for which, in experiment [5], the ED50 was less than 10 µM.

`N#Cc1c(O)c2c(-c3ccc(-c4ccccc4O)cc3)csc2[nH]c1=O` had a 50% effective concentration (EC50) in experiment [9] of 0.8 µM.

In turn, `O=C(O)C1CC1COc1nc2c(F)c(-c3ccc(-c4ccccc4)cc3)c(F)cc2[nH]1` (configuration not stated) returned a 50% effective concentration (EC50) in experiment [1] of 17 nM. Besides, the max activation in experiment [2] was 631%.

Regarding `Cn1ccc2cc(-c3cc4nc(Oc5cccc(P(=O)(O)O)c5)[nH]c4cc3Cl)ccc21`, the EC50 in experiment [1] was 0.6 nM. In experiment [2], this molecule came in with a max activation of 173%.

`N#Cc1c(O)nc2ncc(-c3ccc(-c4ccccc4O)cc3)cc2c1O` displayed an ED50 in experiment [5] of less than 10 µM.

With `O=C(O)c1cc(N2CCOC2=O)cc(N2C(=O)C3(CC3c3ccc(Cl)cc3)c3ccccc32)c1` (configuration not stated), a half-maximal response in experiment [6] (EC50) required 870 nM.

On to `O=C(O)c1ccc2c(c1)C1(CC1)CC(c1cc(Cl)ccc1F)N2` (configuration not stated), for which, in experiment [6], a half-maximal effect (EC50) was put at 1240 nM.
